Source: US9783838B2, “PmST3 enzyme for chemoenzymatic synthesis of alpha-2-3-sialosides” (The Regents of the University of California, priority 2012, dated 2017)
Like-named read-outs stand apart in the source and are kept apart here.

Assays:
PmST3Δ35-His6 [1] = target: T1, PmST3Δ35-His6 (Pasteurella multocida, UniProt Q9CLP3); experiment: Acceptor substrate specificity of PmST3Δ35-His6; assay type: biochemical; details: acceptor 2 mM, CMP-Neu5Ac 2 mM, 37° C., pH 7.5
Procedure: All reactions were carried out in duplicate at 37° C. in Tris-HCl (200 mM, pH 7.5) containing an acceptor substrate (2 mM), CMP-Neu5Ac (2 mM), and PmST3Δ35-His6 (0.25 μg μl^−1). At 10 min or 4 hr, aliquots of reaction mixture were withdrawn and added to pre-chilled acetonitrile:water (20:80) (for reactions with acceptors containing 2-aminobenzoic acid (2AA) or 4-methylumbelliferone (MU) aglycone) or pre-chilled 95% ethanol (for reactions with acceptor containing Pro-triazole-C14 or pNP aglycone) and samples were kept on ice until being analyzed. Samples with acceptors containing 2AA (315 nm excitation and 400 nm emission) or MU (326 nm excitation and 372 nm emission) were analyzed by HPLC equipped with a fluorescent detector. Samples with acceptor containing Pro-triazole-C14 (214 nm) or pNP (300 nm) aglycone were centrifuged at 13,000 rpm for 5 min and analyzed by capillary electrophoresis (CE) equipped with a photodiode array (PDA) detector as described previously using sodium borate buffer (50 mM, pH 10.2) containing β-cyclcodextrin (20 mM) as a running buffer (Glycobiology, 21:1206-1216).

PmST3Δ35-His6 [2] = target: T1, PmST3Δ35-His6; assay type: biochemical
Procedure: For metal effects, various concentrations (1, 5, 10, or 20 mM) of MgCl2 or MnCl2 were used. Ethylenediaminetetraacetic acid (EDTA) as a chelating agent was used at two concentrations (1 or 10 mM). A reducing reagent dithiothreitol (DTT) was used at two concentrations (1 or 10 mM). Reaction without metal ions, EDTA, or DTT was used as a control. The reaction was quenched by adding 490 μl of pre-chilled acetonitrile:water (20:80). Samples were kept on ice until being analyzed by HPLC equipped with a fluorescent detector (315 nm excitation and 400 nm emission).

PmST2 [3] = details: up to 20 mM; cited from earlier work
PmST1 [4] = target: T2, PmST1 (Pasteurella multocida, UniProt Q15KI8); details: cited from earlier work
CstI = details: truncated monofunctional α2-3-sialyltransferase CstI; cited from earlier work
PmST2 [5] = details: cited from earlier work
PmST1 [6] = target: T2, PmST1; details: cited from earlier work; remark: listed apart in the source
[7] = tested on: CC(=O)N[C@H]1[C@H]([C@H](O)[C@H](O)CO)O[C@](OP(=O)(O)OC[C@H]2O[C@@H](n3ccc(N)nc3=O)[C@H](O)[C@@H]2O)(C(=O)O)C[C@@H]1O; experiment: purified protein, by the assay type; details: other: apparent, 37° C., Tris-HCl pH 7.5, other substrate fixed at 1 mM
Procedure: Reactions were carried out in duplicate at 37° C. for 7 min in a total volume of 10 μl in a Tris-HCl buffer (200 mM, pH 7.5).

[8] = Storage stability of purified truncated PmST3 proteins; assay type: physicochemical
Procedure: To further improve the expression of the soluble and active protein, three C-terminal truncated versions of PmST3 (PmST3Δ20-His6, PmST3Δ35-His6, and PmST3Δ45-His6 with the removal of C-terminal 20, 35, and 45 amino acid residues) were cloned into pET22b(+) vector as C-His6 (SEQ ID NO:37) tagged fusion proteins. […] For PmST3Δ45-His6, the expression of soluble protein was improved to the level of MBP fusion protein (4 mg of purified protein from 1 liter of cell culture by Ni^2+-NTA affinity chromatography). However, PmST3Δ45-His6 seemed to have stability issues. […] Under the same expression conditions, purified PmST3Δ35-His6 can be routinely obtained at a level of 29 mg from cell lysate from one liter of cell culture.

[9] = pH profile of α2-3-sialyltransferase activity; assay type: biochemical
Procedure: pH profile of PmST3Δ35-His6. Reactions were carried out in duplicate at 37° C. for 10 min. […] Buffers used were: MES-KOH (pH 4.0-6.5), Tris-HCl (pH 7.0-9.0), and CHES (pH 10.0). Enzymatic reaction was quenched by adding 490 μl of pre-chilled acetonitrile:water (20:80) mixture. The samples were kept on ice until being analyzed by a Shimadzu LC-2010A HPLC system equipped with a membrane on-line degasser, a temperature control unit, and a fluorescence detector (the excitation wavelength was set at 315 nm and the emission wavelength was set at 400 nm) using a reverse phase Premier C18 column (250×4.6 mm I.D., 5 μm particle size, Shimadzu) protected with a C18 guard column cartridge. Mobile phase used was 20% acetonitrile in water.

[10] = Comparison of three Pasteurella multocida sialyltransferases (activities and acceptor use); assay type: biochemical

In the case of `O=[N+]([O-])c1ccc(O[C@@H]2O[C@H](CO)[C@H](O)[C@H](O)[C@H]2O)cc1` [GalβpNP, p-nitrophenyl β-galactoside], the “% Conv. (10 min)” value (PmST3Δ35-His6 [1]) is reported as under 1% and the “% Conv. (4 h)” value (PmST3Δ35-His6 [1]) is reported as 9.4 ± 0.4%.

In the case of `O[C@H](CS)[C@H](O)CS` (racemic) [DTT, dithiothreitol], the “effect on enzyme activity” value (PmST3Δ35-His6 [2]; DTT 1 or 10 mM) is reported as “Change of activity was not observed”.

With `O=C(O)CN(CCN(CC(=O)O)CC(=O)O)CC(=O)O` [EDTA, Ethylenediaminetetraacetic acid] the “effect on enzyme activity” value (PmST3Δ35-His6 [2]; EDTA up to 10 mM) was “did not affect”.

In the case of `[Cl-].[Cl-].[Mg+2]` [MgCl2], the “effect on enzyme activity” value (PmST3Δ35-His6 [2]; MnCl2 or MgCl2 up to 20 mM) is given as “did not affect” and the “effect on enzyme activity” value (PmST2 [3]) is given as “did not affect”.

In the case of `[Cl][Mn][Cl]` [MnCl2], the “effect on enzyme activity” value (PmST3Δ35-His6 [2]; MnCl2 or MgCl2 up to 20 mM) is listed as “did not affect”, the “effect on α2-3-sialyltransferase activity” value (PmST1 [4]; 5 mM or 10 mM) is listed as “decreased” and the “effect on α2-3-sialyltransferase activity” value (PmST1 [4]; 20 mM) is listed as “almost abolished”. For the same molecule, the “effect on enzyme activity” value (PmST2 [3]) was “did not affect”.

In the case of `CC(=O)N[C@H]1[C@H]([C@H](O)[C@H](O)CO)O[C@](OP(=O)(O)OC[C@H]2O[C@@H](n3ccc(N)nc3=O)[C@H](O)[C@@H]2O)(C(=O)O)C[C@@H]1O` [CMP-Neu5Ac, Cytidine 5′-monophosphate N-acetylneuraminic acid], the Km (CstI) is listed as 400 µM, the Km (PmST2 [5]) is listed as 1300 ± 100 µM and the Km (PmST1 [6]) is listed as 440 µM.

In the case of `Cc1cc(=O)oc2cc(O[C@@H]3O[C@H](CO)[C@@H](O[C@@H]4O[C@H](CO)[C@H](O)[C@H](O)[C@H]4O)[C@H](O)[C@H]3O)ccc12` [LacβMU, 4-methylumbelliferyl β-lactoside], the “% Conv. (10 min)” value (PmST3Δ35-His6 [1]) is reported as 29.9 ± 1.2% and the “% Conv. (4 h)” value (PmST3Δ35-His6 [1]) is reported as 65.6 ± 1.6%.

With “PmST3Δ35-His6 (Pasteurella multocida subsp. multocida str. Pm70)” the Km [7] was 260 ± 10 µM, the Vmax [7] was 44 µM/min and the kcat [7] was 0.122 ± 0.00167 s⁻¹. For the same molecule, the kcat/Km [7] was 467 M⁻¹ s⁻¹.

B1: PmST3Δ45-His6: C-terminal 45 residue truncated, C-His6 tagged PmST3, SEQ ID NO: 12 (protein)
chain: MDKFAEHEIPKAVIVAGNGESLSQIDYRLLPKNYDVFRCNQFYFEERYFLGNKIKAVFFTPGVFLEQYYTLYHLKRNNEYFVDNVILSSFNHPTVDLEKSQKIQALFIDVINGYEKYLSKLTAFDVYLRYKELYENQRITSGVYMCAVAIAMGYTDIYLTGIDFYQASEENYAFDNKKPNIIRLLPDFRKEKTLFSYHSKDIDLEALSFLQQHYHVNFYSISPMSPLSKHFPIPTVEDDCETTFVAPLKENYINDILLVDKLAAALEHHHHHH
modifications: synthetic C-terminal truncated Pasteurella multocida sialyltransferase 3 (PmST3, Pm1174) C-His-6 tagged fusion protein PmST3delta45-His-6
In the case of B1, the “storage stability (precipitation)” value ([8]; after 3 days of storage at 4° C. after dialysis against 10% glycerol and 25 mM Tris-HCl, pH 7.5) is reported as “Precipitation was observed”.

B2: PmST3Δ35-His6: C-terminal 35 residue truncated, C-His6 tagged PmST3 α2-3-sialyltransferase, SEQ ID NO: 11 (protein)
chain: MDKFAEHEIPKAVIVAGNGESLSQIDYRLLPKNYDVFRCNQFYFEERYFLGNKIKAVFFTPGVFLEQYYTLYHLKRNNEYFVDNVILSSFNHPTVDLEKSQKIQALFIDVINGYEKYLSKLTAFDVYLRYKELYENQRITSGVYMCAVAIAMGYTDIYLTGIDFYQASEENYAFDNKKPNIIRLLPDFRKEKTLFSYHSKDIDLEALSFLQQHYHVNFYSISPMSPLSKHFPIPTVEDDCETTFVAPLKENYINDILLPPHFVYEKLGVDKLAAALEHHHHHH
modifications: synthetic C-terminal truncated Pasteurella multocida sialyltransferase 3 (PmST3, Pm1174) C-His-6 tagged fusion protein PmST3delta35-His-6
With B2 the “optimal pH range for α2-3-sialyltransferase activity” value ([9]; LacβPro2AA as acceptor) was 6.5-9.0, the “activity outside the optimal pH range” value ([9]; pH below 6.0 or 10.0) was “decreased dramatically” and the “Use galactosyl glycolipids as acceptors” value [10] was “Yes”. For the same molecule, the “Use galactosyl oligosaccharides as acceptors” value [10] was “Yes”, the α2-3-sialidase activity [10] was “No” and the α2-3-sialyltransferase activity [10] was “Yes”. For the same molecule, the α2-3-trans-sialidase activity [10] was “No”, the α2-6-sialyltransferase activity [10] was “No” and the “storage stability (activity)” value ([8]; after 3 months of storage in 10% glycerol and 25 mM Tris-HCl (pH 7.5) buffer) was “remained active”.
